{
  "source": "patent US20250120922A1",
  "about": "“COMPOSITION FOR IMPROVING COW REPRODUCTIVE ABILITY” (SOLOMON CO., LTD., priority 2022, published 2025)",
  "system": "cows after calving",
  "test": "Effect of improving cow reproductive ability (first return to estrus after calving, composition mounted on the leash)",
  "assay_type": "in vivo",
  "conditions": "for First return to estrus day after calving: leash mounting type, 3 heads",
  "excerpt": "The mixture was poured into a wax tray and completely hardened to prepare a composition for improving cow reproductive ability.\nBy using the composition prepared in Example 2, the effect of improving the cow reproductive ability was confirmed after being mounted on the leash of cows after calving. The first return to estrus after calving was generally known to be 60 to 90 days, and in the experiment, confirmed to be average 84.20±6.64 in the case of cow used as a control group.",
  "note": "“And” between values parts separate entries of the source, which are not always exact repeats. Equal values may be shown once.",
  "data": [
    {"compound": "Cc1ccc(O)cc1", "note": "[p-cresol]", "values": [
      {"measurement": "First return to estrus day after calving", "setting": "1% p-cresol in paraffin wax block", "result": "46 ± 4", "unit": "days"},
      {"measurement": "First return to estrus day after calving", "setting": "5% p-cresol in paraffin wax block", "result": "28 days and 28 ± 4 days"},
      {"measurement": "Return of estrus earlier than the earliest normal return time of estrus (approximately 45 days after calving)", "setting": "5% p-cresol pheromone block", "result": "about 17 days"}
    ]}
  ]
}
